The target in the test is T1, IRAK4 (Homo sapiens, UniProt Q9NWZ3).
T1 construct: endogenous in cells; host or cells: OCI-LY10
T1 sequence (Q9NWZ3 1-460): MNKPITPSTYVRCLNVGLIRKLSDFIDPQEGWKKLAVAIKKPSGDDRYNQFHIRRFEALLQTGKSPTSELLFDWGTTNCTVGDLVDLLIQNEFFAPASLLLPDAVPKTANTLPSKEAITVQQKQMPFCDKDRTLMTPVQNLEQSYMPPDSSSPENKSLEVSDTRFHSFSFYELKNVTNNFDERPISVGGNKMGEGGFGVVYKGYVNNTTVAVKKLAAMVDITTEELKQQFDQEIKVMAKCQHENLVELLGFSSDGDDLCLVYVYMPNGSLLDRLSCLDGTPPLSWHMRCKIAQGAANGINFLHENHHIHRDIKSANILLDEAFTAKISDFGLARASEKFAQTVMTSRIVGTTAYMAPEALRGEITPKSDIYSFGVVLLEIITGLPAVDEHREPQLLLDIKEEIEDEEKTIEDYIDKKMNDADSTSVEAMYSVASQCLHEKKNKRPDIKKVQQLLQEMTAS
The test is described as follows: IRAK4 MSD degradation in OCI-LY10. Format: cell-based. The note with it: OCI-LY10 cells, 24 hrs, Meso Scale Discovery. As for the experimental part:
Degradation of IRAK4 in OCI-LY10 was quantitatively measured using Meso Scale Discovery technology. […] Compounds were then added to the assay plates with a final top concentration of 1 to 10 μM in a 1:3 dilution series with total of 8 doses. The assay plates were then incubated for 4 to 24 hours at 37° C. under 5% CO2. […] To prepare MSD assay plates (Meso Scale Discovery Catalog number L15XA-3), the plates were coated with 2 μg/mL capture antibody (mouse Anti-IRAK4 antibody [2H9], ab119942) in PBS, at 40 μL/well. […] Cell lysates were then added to MSD assay plates and the plates were incubated at room temperature for 1 hour. The plates were then washed 3 times with 150 μL/well TBST buffer and 25 μL/well primary detection antibody (rabbit Anti-IRAK4 antibody [Y279], from Abcam. Catalog number ab32511, 1 μg/mL). The assay plates were then incubated at room temperature for 1 hour, washed 3 times with 150 μL/well TBST buffer and 25 μL/well secondary detection antibody, SULFO-TAG anti-rabbit antibody were added (anti-rabbit antibody from Meso Scale Discovery, Catalog number R32AB-1, 1 μg/mL). The assay plates were then incubated at room temperature for 1 hour, washed 3 times with 150 μL/well TBST buffer, and 150 μL/well MSD reading buffer (Meso Scale Discovery catalog number R92TC-2) was added. The plates were then analyzed by a MSD reader (Meso Scale Discovery, Model Quick Plex SQ 120). The data was then analyzed by software Prism 7.0 from GraphPad and the dose-depended IRAK4 degradation were fit using a three-parameter logistic equation to calculate DC50.
The letter codes for IRAK4 DC50 include: A (<0.01 μM); B (0.01 to <0.1 μM); C (0.1 to 0.2 μM); D (>0.2 μM) and E (not tested).
For the compound `COc1ccc2c(c1N1CC[C@@H](N(C)C[C@H]3CC[C@H](n4cc(NC(=O)c5cnn6cccnc56)c(C(F)F)n4)CC3)[C@H](F)C1)n(C)c(=O)n2C1CCC(=O)NC1=O` (single isomer, unassigned) [I-152], the 50% degradation concentration (DC50) is < 10 nM.

Take `COc1ccc2c(c1N1CC[C@@H](N(C)C[C@H]3CC[C@H](n4cc(NC(=O)c5cnn6cccnc56)c(C(F)F)n4)CC3)[C@@H](F)C1)n(C)c(=O)n2C1CCC(=O)NC1=O` (single isomer, unassigned) [I-153]: the DC50 was < 10 nM.

In the case of `Cn1c(=O)n(C2CCC(=O)NC2=O)c2cccc([C@@H]3CCN(C[C@H]4CC[C@H](n5cc6cc(NC(=O)c7cncc(C(F)(F)F)n7)ccc6n5)CC4)CC3(F)F)c21` (single isomer, unassigned) [I-179], the DC50 was < 10 nM.

In turn, `COc1ccc2c(c1N1CC[C@@H](N(C)C[C@H]3CC[C@H](n4cc(NC(=O)c5cnn6cccnc56)c(C(F)F)n4)CC3)C(F)(F)C1)n(C)c(=O)n2C1CCC(=O)NC1=O` (single isomer, unassigned) [I-204] gave a DC50 of 10 to 100 nM.

Turning to `CN(C[C@H]1CC[C@H](c2cc3cc(NC(=O)c4cncc(C(F)(F)F)n4)ccn3n2)CC1)[C@@H]1CCN(c2cccc3c2n(C)c(=O)n3C2CCC(=O)NC2=O)C[C@@H]1F` (single isomer, unassigned) [I-211], the 50% degradation concentration (DC50) was > 200 nM.

Turning to `CN(C[C@H]1CC[C@H](c2cc3cc(NC(=O)c4cncc(C(F)(F)F)n4)ccn3n2)CC1)[C@H]1CCN(c2cccc3c2n(C)c(=O)n3C2CCC(=O)NC2=O)C[C@H]1F` (single isomer, unassigned) [I-212], the half-maximal degradation concentration (DC50) was 10 to 100 nM.

In the case of `Cn1c(=O)n([C@@H]2CCC(=O)NC2=O)c2cccc(N3CCC4(CCN(C[C@H]5CC[C@H](n6cc7cc(NC(=O)c8cncc(C#N)c8)c(C(C)(C)O)cc7n6)CC5)CC4(F)F)CC3)c21` (single isomer, unassigned) [I-224], the DC50 was < 10 nM.

Regarding `Cn1c(=O)n([C@H]2CCC(=O)NC2=O)c2cccc(N3CCC4(CCN(C[C@H]5CC[C@H](n6cc7cc(NC(=O)c8cncc(C#N)c8)c(C(C)(C)O)cc7n6)CC5)CC4(F)F)CC3)c21` (single isomer, unassigned) [I-225], the DC50 was < 10 nM.

Turning to `Cn1nc([C@@H]2CCC(=O)NC2=O)c2cccc([C@@H]3CCN(C[C@H]4CC[C@H](n5cc6cc(NC(=O)c7cncc(C#N)c7)c(C(C)(C)O)cc6n5)CC4)CC3(F)F)c21` (single isomer, unassigned) [I-230], the half-maximal degradation concentration (DC50) is < 10 nM.

Turning to `Cn1c(=O)n([C@H]2CCC(=O)NC2=O)c2ccc(F)c([C@@H]3CCN(C[C@H]4CC[C@H](n5cc6cc(NC(=O)c7cncc(C#N)c7)c(C(C)(C)O)cc6n5)CC4)CC3(F)F)c21` (single isomer, unassigned) [I-232], the 50% degradation concentration (DC50) was < 10 nM.

As to `COc1ccc2c(c1N1CC3(CCN(C[C@H]4CC[C@H](n5cc6cc(NC(=O)c7cncc(C#N)c7)c(C(C)(C)O)cc6n5)CC4)CC3(F)F)C1)n(C)c(=O)n2[C@H]1CCC(=O)NC1=O` (single isomer, unassigned) [I-234], the 50% degradation concentration (DC50) is < 10 nM.

Regarding `COc1ccc2c(c1N1CC3(CCN(C[C@H]4CC[C@H](n5cc6cc(NC(=O)c7cncc(C#N)c7)c(C(C)(C)O)cc6n5)CC4)CC3(F)F)C1)n(C)c(=O)n2[C@@H]1CCC(=O)NC1=O` (single isomer, unassigned) [I-235], the DC50 is < 10 nM.

On to `Cn1c(=O)n([C@H]2CCC(=O)NC2=O)c2cccc([C@@H]3CCN(C[C@H]4CC[C@H](c5nc6cc(C(C)(C)O)c(NC(=O)c7cncc(C#N)c7)cc6s5)CC4)C[C@H]3F)c21` (single isomer, unassigned) [I-236], for which the 50% degradation concentration (DC50) is < 10 nM.

On to `Cn1c(=O)n([C@@H]2CCC(=O)NC2=O)c2cccc([C@@H]3CCN(C[C@H]4CC[C@H](c5nc6cc(C(C)(C)O)c(NC(=O)c7cncc(C#N)c7)cc6s5)CC4)C[C@H]3F)c21` (single isomer, unassigned) [I-237], for which the DC50 is < 10 nM.

Consider `COc1cc2nn([C@H]3CC[C@H](CN4CC[C@@H](c5cccc6c5c(C)nn6C5CCC(=O)NC5=O)[C@H](F)C4)CC3)cc2cc1NC(=O)c1cncc(C#N)c1` (single isomer, unassigned) [I-265], for which the DC50 is < 10 nM.

Turning to `CN(C[C@H]1CC[C@H](c2cn3cc(NC(=O)c4cncc(C(F)(F)F)n4)ccc3n2)CC1)[C@H]1CCN(c2cccc3c2n(C)c(=O)n3C2CCC(=O)NC2=O)C[C@H]1F` (single isomer, unassigned) [I-285], the DC50 was < 10 nM.

Regarding `COc1ccc2c(c1N1CC[C@H](N(C)C[C@H]3CC[C@H](n4cc(NC(=O)c5cnn6cccnc56)c(C(F)F)n4)CC3)C(F)(F)C1)n(C)c(=O)n2C1CCC(=O)NC1=O` (single isomer, unassigned) [I-289], the 50% degradation concentration (DC50) was < 10 nM.

Take `CN(C[C@H]1CC[C@H](c2cc3cc(NC(=O)c4cncc(C(F)(F)F)n4)ccn3n2)CC1)[C@@H]1CCN(c2cccc3c2n(C)c(=O)n3C2CCC(=O)NC2=O)C[C@H]1F` (single isomer, unassigned) [I-291]: the half-maximal degradation concentration (DC50) is > 200 nM.

For `CN(C[C@H]1CC[C@H](c2cc3cc(NC(=O)c4cncc(C(F)(F)F)n4)ccn3n2)CC1)[C@H]1CCN(c2cccc3c2n(C)c(=O)n3C2CCC(=O)NC2=O)C[C@@H]1F` (single isomer, unassigned) [I-292], the DC50 lay within 10 to 100 nM.

`CN(C[C@H]1CC[C@H](c2nc3cc(C(C)(C)O)c(NC(=O)c4cncc(C(F)(F)F)n4)cc3o2)CC1)[C@H]1CCN(c2cccc3c2n(C)c(=O)n3C2CCC(=O)NC2=O)C[C@@H]1F` (single isomer, unassigned) [I-298]: the half-maximal degradation concentration (DC50) was < 10 nM.

`CN(C[C@H]1CC[C@H](c2nc3cc(C(C)(C)O)c(NC(=O)c4cncc(C(F)(F)F)n4)cc3o2)CC1)[C@H]1CCN(c2cccc3c2n(C)c(=O)n3C2CCC(=O)NC2=O)C[C@H]1F` (single isomer, unassigned) [I-299]: the DC50 was < 10 nM.

On to `CN(C[C@H]1CC[C@H](c2nc3cc(C(C)(C)O)c(NC(=O)c4cncc(C(F)(F)F)n4)cc3s2)CC1)[C@@H]1CCN(c2cccc3c2n(C)c(=O)n3C2CCC(=O)NC2=O)C[C@H]1F` (single isomer, unassigned) [I-300], for which the 50% degradation concentration (DC50) was < 10 nM.

For the compound `Cn1c(=O)n(C2CCC(=O)NC2=O)c2cccc(C#CCN3CCN(C[C@H]4CC[C@H](n5cc(NC(=O)c6cnn7ccc(N8C[C@H]9C[C@@H]8CO9)nc67)c(C(F)F)n5)CC4)C[C@@H]3C(F)(F)F)c21` (single isomer, unassigned) [I-303], the DC50 was in the range of 10 to 100 nM.

Turning to `COc1cc2nc([C@H]3CC[C@H](CN(C)[C@@H]4CCN(c5cccc6c5n(C)c(=O)n6C5CCC(=O)NC5=O)C[C@H]4F)CC3)cn2cc1NC(=O)c1cncc(C(F)(F)F)n1` (single isomer, unassigned) [I-317], the DC50 is < 10 nM.

For `COc1cc2nc([C@H]3CC[C@H](CN(C)[C@H]4CCN(c5cccc6c5n(C)c(=O)n6C5CCC(=O)NC5=O)C[C@@H]4F)CC3)cn2cc1NC(=O)c1cncc(C(F)(F)F)n1` (single isomer, unassigned) [I-318], the DC50 is < 10 nM.

`Cn1c(=O)n(C2CCC(=O)NC2=O)c2cccc(N3CCN(C[C@H]4CC[C@H](n5cc6cc(NC(=O)c7cncc(C(F)(F)F)n7)ccc6n5)CC4)C[C@H]3C(F)(F)F)c21` (single isomer, unassigned) [I-325] returned a DC50 of 10 to 100 nM.

For the compound `Cn1c(=O)n(C2CCC(=O)NC2=O)c2cccc([C@@H]3CCN(C[C@H]4CC[C@H](c5nc6cc(C(C)(C)O)c(NC(=O)c7cncc(C(F)(F)F)n7)cc6o5)CC4)CC3(F)F)c21` (single isomer, unassigned) [I-327], the DC50 is < 10 nM.

For orientation: DC50 means the concentration at which degradation of the target reaches its halfway point. Lower therefore signals a more potent degrader.

Source of the values: patent US20250059164A1, “IRAK DEGRADERS AND USES THEREOF” (Kymera Therapeutics, Inc., priority 2023, published 2025).
